This is an account of results in publication PMC3789393, “Purification and Characterization of Phenylalanine Ammonia Lyase from Trichosporon cutaneum” (Enzyme Research, 2013).

In general, Km refers to the concentration of substrate that gives half-maximal velocity.

For the experiment, the system named is T1, Trichosporon cutaneum phenylalanine ammonia lyase (TcPAL).
T1 construct: gene PAL; extra bands at 67 and 31 kDa; 79 kDa monomer; PAL typically homotetramer
In words: continuous spectrophotometric assay of trans-cinnamic acid at […] nm. The class given is biochemical, Cutaneotrichosporon cutaneum. The note with it: 10 mM Tris-HCl pH 8.0, 30 °C; trial 1 of 3 (the trial quoted in abstract).

With `N[C@@H](Cc1ccccc1)C(=O)O` [Phe], the Km was found to be 5 ± 1.1 mM.
